In ChEMBL document CHEMBL4507263, “Data for DCP probe BAY-474” (2021):

What was measured:
[1] = molecular target: Dual specificity protein kinase CLK3 (Homo sapiens) (UniProt P49761); assay: CLK3 (h) Millipore kinase activity assay; conditions: Compound concentration 1.0 uM
[2] = molecular target: Adenosine receptor A1 (Homo sapiens) (UniProt P30542); conditions: Compound concentration 10.0 uM
[3] = molecular target: Beta-2 adrenergic receptor (Homo sapiens) (UniProt P07550); conditions: Compound concentration 10.0 uM
[4] = molecular target: Serine/threonine-protein kinase 24 (Homo sapiens) (UniProt Q9Y6E0); assay: MST3 (h) Millipore kinase activity assay; conditions: Compound concentration 1.0 uM
[5] = molecular target: Casein kinase I isoform delta (Homo sapiens) (UniProt P48730); assay: CK1delta (h) Millipore kinase activity assay; conditions: Compound concentration 1.0 uM
[6] = molecular target: Melatonin receptor type 1A (Homo sapiens) (UniProt P48039); assay: Inhibition of Melatonin MT1 at 10 µM in the Eurofins-Panlabs radioligand binding assay (Eurofins_assay_251600); design: ligand concentration 0.05 nM; conditions: Compound concentration 10.0 uM
[7] = molecular target: Mitogen-activated protein kinase 1 (Homo sapiens) (UniProt P28482); assay: MAPK1 (h) Millipore kinase activity assay; conditions: Compound concentration 1.0 uM
[8] = molecular target: Ribosomal protein S6 kinase alpha-3 (Homo sapiens, UniProt P51812); assay: Rsk2 (h) Millipore kinase activity assay
[9] = molecular target: Tyrosine-protein kinase HCK (Homo sapiens) (UniProt P08631); assay: Hck (h) Millipore kinase activity assay; conditions: Compound concentration 1.0 uM
[10] = molecular target: Cysteinyl leukotriene receptor 1 (Homo sapiens) (UniProt Q9Y271); assay: Inhibition of Leukotriene, Cysteinyl CysLT1 at 10 µM in the Eurofins-Panlabs radioligand binding assay (Eurofins_assay_250460); design: ligand concentration 0.3 nM, non-specific ligand with concentration 0.3 µM Leukotriene D4, incubation time 30 min, incubation temperature 25 °C; conditions: Compound concentration 10.0 uM
[11] = molecular target: D(3) dopamine receptor (Homo sapiens) (UniProt P35462); conditions: Compound concentration 10.0 uM
[12] = molecular target: Protein kinase C delta type (Homo sapiens) (UniProt Q05655); assay: PKCdelta (h) Millipore kinase activity assay; conditions: Compound concentration 1.0 uM
[13] = molecular target: Focal adhesion kinase 1 (Homo sapiens) (UniProt Q05397); assay: FAK (h) Millipore kinase activity assay; conditions: Compound concentration 1.0 uM
Mus musculus = species: Mus musculus; assay: Inhibition of Phorbol Ester at 10 µM in the Eurofins-Panlabs radioligand binding assay (Eurofins_assay_264500); design: ligand concentration 3 nM; conditions: Compound concentration 10.0 uM
[14] = molecular target: voltage-gated sodium channel, site 2 (Rattus norvegicus, UniProt F1LQQ7+O08562+O88420+O88457+P04774+P04775+P08104+P15389+P15390+Q62968); assay: Inhibition of Sodium Channel, Site 2 at 10 µM in the Eurofins-Panlabs radioligand binding assay (Eurofins_assay_279510); assay type: protein assay; design: ligand concentration 5 nM, non-specific ligand with concentration 100 µM Veratridine, incubation time 60 min, incubation temperature 37 °C; conditions: male, Wistar, rat whole brain (except cerebellum) membranes, probe [3H] Batrachotoxinin, compound concentration 10 uM
[15] = molecular target: Serine/threonine-protein kinase Sgk3 (Homo sapiens) (UniProt Q96BR1); assay: SGK3 (h) Millipore kinase activity assay; conditions: Compound concentration 1.0 uM
[16] = molecular target: Serine/threonine-protein kinase 4 (Homo sapiens) (UniProt Q13043); assay: MST1 (h) Millipore kinase activity assay; conditions: Compound concentration 1.0 uM
[17] = molecular target: Ephrin type-A receptor 2 (Homo sapiens) (UniProt P29317); assay: EphA2 (h) Millipore kinase activity assay; conditions: Compound concentration 1.0 uM
[18] = molecular target: Death-associated protein kinase 1 (Homo sapiens) (UniProt P53355); conditions: Compound concentration 1000.0 nM
[19] = molecular target: Vascular endothelial growth factor receptor 3 (Homo sapiens) (UniProt P35916); conditions: Compound concentration 1000.0 nM
[20] = molecular target: Serine/threonine-protein kinase 17A (Homo sapiens) (UniProt Q9UEE5); conditions: Compound concentration 1000.0 nM
[21] = molecular target: Tyrosine-protein kinase CSK (Homo sapiens) (UniProt P41240); conditions: Compound concentration 1000.0 nM
[22] = molecular target: Cyclin-dependent kinase 19 (Homo sapiens) (UniProt Q9BWU1); conditions: Compound concentration 1000.0 nM
[23] = test system: Mast/stem cell growth factor receptor Kit (Homo sapiens), P10721 [D816V]; conditions: Compound concentration 1000.0 nM
[24] = molecular target: Serine/threonine-protein kinase SBK1 (Homo sapiens) (UniProt Q52WX2); conditions: Compound concentration 1000.0 nM
[25] = test system: Mast/stem cell growth factor receptor Kit (Homo sapiens), P10721 [D816H]; conditions: Compound concentration 1000.0 nM
[26] = test system: Phosphatidylinositol 4,5-bisphosphate 3-kinase catalytic subunit alpha isoform (Homo sapiens), P42336 [H1047Y]; conditions: Compound concentration 1000.0 nM
[27] = molecular target: Calcium/calmodulin-dependent protein kinase type II subunit beta (Homo sapiens) (UniProt Q13554); conditions: Compound concentration 1000.0 nM
[28] = molecular target: Ephrin type-A receptor 1 (Homo sapiens) (UniProt P21709); conditions: Compound concentration 1000.0 nM
[29] = test system: Receptor-type tyrosine-protein kinase FLT3 (Homo sapiens), P36888 [K663Q]; conditions: Compound concentration 1000.0 nM
[30] = molecular target: Casein kinase I isoform alpha (Homo sapiens) (UniProt P48729); conditions: Compound concentration 1000.0 nM
[31] = molecular target: G protein-coupled receptor kinase 4 (Homo sapiens) (UniProt P32298); conditions: Compound concentration 1000.0 nM
[32] = molecular target: Testis-specific serine/threonine-protein kinase 3 (Homo sapiens) (UniProt Q96PN8); conditions: Compound concentration 1000.0 nM
[33] = molecular target: MAP/microtubule affinity-regulating kinase 3 (Homo sapiens) (UniProt P27448); conditions: Compound concentration 1000.0 nM
[34] = molecular target: Cyclin-dependent kinase 14 (Homo sapiens) (UniProt O94921); conditions: Compound concentration 1000.0 nM
[35] = molecular target: Myosin light chain kinase, smooth muscle (Homo sapiens) (UniProt Q15746); conditions: Compound concentration 1000.0 nM
[36] = molecular target: Hormonally up-regulated neu tumor-associated kinase (Homo sapiens) (UniProt P57058); conditions: Compound concentration 1000.0 nM
[37] = molecular target: Cyclin-dependent kinase 13 (Homo sapiens) (UniProt Q14004); conditions: Compound concentration 1000.0 nM
[38] = molecular target: Testis-specific serine/threonine-protein kinase 1 (Homo sapiens) (UniProt Q9BXA7); conditions: Compound concentration 1000.0 nM
[39] = molecular target: Fibroblast growth factor receptor 1 (Homo sapiens) (UniProt P11362); conditions: Compound concentration 1000.0 nM
[40] = molecular target: Rho-associated protein kinase 1 (Homo sapiens) (UniProt Q13464); conditions: Compound concentration 1000.0 nM
[41] = molecular target: Focal adhesion kinase 1 (Homo sapiens) (UniProt Q05397); conditions: Compound concentration 1000.0 nM
[42] = molecular target: Serine/threonine-protein kinase Sgk3 (Homo sapiens) (UniProt Q96BR1); conditions: Compound concentration 1000.0 nM

Sequence of Ribosomal protein S6 kinase alpha-3 (P51812 whole entry): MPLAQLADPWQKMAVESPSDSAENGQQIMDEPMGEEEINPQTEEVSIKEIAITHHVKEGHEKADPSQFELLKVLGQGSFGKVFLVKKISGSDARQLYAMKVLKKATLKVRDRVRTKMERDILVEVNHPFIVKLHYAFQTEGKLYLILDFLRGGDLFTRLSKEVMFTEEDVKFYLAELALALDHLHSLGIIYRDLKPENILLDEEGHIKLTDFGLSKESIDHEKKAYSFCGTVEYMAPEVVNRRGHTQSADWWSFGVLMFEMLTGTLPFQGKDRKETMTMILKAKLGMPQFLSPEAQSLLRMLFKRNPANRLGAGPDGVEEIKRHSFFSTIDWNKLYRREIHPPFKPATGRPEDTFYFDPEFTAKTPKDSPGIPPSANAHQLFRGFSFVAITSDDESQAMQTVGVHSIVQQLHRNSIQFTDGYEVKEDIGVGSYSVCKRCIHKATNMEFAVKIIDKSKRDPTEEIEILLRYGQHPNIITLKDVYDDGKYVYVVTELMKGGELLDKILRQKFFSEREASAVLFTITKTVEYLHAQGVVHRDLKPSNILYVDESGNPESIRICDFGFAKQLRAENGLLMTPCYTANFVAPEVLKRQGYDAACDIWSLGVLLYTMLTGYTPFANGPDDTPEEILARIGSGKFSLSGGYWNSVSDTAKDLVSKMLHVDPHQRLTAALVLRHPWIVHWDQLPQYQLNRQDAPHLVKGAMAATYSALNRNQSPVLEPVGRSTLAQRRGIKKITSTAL
Sequence of Serine/threonine-protein kinase Sgk3 (Homo sapiens) (Q96BR1 whole entry): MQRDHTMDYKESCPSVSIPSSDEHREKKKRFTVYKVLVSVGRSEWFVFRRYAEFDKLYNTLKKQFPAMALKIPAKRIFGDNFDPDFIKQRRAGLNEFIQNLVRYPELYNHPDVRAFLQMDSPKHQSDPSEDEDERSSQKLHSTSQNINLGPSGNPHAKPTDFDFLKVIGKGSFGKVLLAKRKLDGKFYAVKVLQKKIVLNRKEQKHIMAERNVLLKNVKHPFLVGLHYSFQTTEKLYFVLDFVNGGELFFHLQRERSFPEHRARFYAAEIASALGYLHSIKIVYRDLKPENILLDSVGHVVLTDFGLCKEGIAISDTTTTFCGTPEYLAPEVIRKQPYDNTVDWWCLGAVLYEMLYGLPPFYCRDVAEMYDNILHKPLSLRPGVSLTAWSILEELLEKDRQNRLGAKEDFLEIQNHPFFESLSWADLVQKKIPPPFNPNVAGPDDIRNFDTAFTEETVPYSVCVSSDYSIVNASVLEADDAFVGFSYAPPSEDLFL
Sequence of Focal adhesion kinase 1 (Homo sapiens) (Q05397 2-1052 limits assumed): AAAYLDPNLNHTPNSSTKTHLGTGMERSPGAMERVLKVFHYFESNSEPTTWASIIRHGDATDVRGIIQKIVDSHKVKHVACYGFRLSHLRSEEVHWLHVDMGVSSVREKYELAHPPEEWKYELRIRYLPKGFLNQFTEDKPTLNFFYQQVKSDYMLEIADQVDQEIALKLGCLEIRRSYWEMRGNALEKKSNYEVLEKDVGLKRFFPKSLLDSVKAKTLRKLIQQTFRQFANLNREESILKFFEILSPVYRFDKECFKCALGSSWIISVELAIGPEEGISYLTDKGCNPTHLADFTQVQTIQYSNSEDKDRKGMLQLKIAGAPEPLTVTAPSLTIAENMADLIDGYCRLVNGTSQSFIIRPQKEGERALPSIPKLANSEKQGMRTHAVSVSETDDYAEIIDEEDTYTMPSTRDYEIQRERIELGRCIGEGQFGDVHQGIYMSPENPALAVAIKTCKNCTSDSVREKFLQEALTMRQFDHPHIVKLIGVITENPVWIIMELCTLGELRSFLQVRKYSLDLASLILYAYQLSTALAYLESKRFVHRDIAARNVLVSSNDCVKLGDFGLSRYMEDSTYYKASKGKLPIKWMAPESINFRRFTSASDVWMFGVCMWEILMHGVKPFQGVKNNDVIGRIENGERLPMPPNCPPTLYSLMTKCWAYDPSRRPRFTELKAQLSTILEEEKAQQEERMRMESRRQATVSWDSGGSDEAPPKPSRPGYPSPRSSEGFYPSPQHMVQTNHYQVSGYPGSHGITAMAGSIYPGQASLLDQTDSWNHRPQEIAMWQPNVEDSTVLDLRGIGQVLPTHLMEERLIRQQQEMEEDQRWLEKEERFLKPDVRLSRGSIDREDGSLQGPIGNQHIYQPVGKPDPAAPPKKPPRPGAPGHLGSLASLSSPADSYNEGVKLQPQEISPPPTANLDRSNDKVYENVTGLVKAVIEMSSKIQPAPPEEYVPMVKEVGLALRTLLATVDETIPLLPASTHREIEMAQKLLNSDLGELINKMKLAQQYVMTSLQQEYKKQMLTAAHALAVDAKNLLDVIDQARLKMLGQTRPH
Sequence of Vascular endothelial growth factor receptor 3 (Homo sapiens) (P35916 whole entry): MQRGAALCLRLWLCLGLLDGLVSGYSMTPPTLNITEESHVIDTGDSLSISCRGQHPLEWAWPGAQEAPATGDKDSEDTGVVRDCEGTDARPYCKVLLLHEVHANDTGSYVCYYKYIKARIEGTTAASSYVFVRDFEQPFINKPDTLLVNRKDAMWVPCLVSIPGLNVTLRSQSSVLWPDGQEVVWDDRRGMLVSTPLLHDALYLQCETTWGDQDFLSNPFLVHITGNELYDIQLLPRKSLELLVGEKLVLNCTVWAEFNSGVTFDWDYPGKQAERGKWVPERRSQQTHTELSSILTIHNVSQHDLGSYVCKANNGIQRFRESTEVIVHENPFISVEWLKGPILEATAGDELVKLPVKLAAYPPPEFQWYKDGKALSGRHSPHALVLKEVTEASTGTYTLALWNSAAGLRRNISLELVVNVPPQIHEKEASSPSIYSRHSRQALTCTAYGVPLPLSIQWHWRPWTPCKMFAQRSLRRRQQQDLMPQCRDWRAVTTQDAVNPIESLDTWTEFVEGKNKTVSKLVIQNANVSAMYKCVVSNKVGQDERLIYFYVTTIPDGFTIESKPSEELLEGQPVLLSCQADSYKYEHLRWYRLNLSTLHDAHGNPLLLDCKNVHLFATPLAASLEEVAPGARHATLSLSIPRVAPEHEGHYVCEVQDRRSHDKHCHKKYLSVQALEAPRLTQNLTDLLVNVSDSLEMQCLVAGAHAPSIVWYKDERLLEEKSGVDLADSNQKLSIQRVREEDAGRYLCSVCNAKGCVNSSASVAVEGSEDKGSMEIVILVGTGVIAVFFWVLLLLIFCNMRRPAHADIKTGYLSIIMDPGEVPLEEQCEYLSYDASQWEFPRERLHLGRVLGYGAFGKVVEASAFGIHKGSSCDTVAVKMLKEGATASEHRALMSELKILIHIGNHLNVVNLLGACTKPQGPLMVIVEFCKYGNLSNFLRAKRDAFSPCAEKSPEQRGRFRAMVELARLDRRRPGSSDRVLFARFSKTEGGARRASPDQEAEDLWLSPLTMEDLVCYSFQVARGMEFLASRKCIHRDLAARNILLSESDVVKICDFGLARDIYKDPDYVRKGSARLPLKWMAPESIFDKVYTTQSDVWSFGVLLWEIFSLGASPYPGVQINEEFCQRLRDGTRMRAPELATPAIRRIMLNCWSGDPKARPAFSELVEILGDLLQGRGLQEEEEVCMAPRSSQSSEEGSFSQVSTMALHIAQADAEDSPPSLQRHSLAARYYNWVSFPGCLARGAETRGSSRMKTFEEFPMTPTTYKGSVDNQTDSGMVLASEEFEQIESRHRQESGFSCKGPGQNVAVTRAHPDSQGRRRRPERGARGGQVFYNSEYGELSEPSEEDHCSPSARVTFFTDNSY
Sequence of Casein kinase I isoform alpha (Homo sapiens) (P48729 2-337 limits assumed): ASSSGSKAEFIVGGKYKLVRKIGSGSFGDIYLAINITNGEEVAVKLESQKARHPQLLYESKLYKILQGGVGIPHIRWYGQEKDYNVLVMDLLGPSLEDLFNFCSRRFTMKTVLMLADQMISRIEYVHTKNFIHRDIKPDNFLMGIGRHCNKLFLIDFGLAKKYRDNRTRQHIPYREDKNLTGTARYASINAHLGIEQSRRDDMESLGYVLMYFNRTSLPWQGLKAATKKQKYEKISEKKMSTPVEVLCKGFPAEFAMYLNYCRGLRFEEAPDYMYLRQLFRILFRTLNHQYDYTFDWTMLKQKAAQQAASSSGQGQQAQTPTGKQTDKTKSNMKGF
Sequence of Cyclin-dependent kinase 14 (Homo sapiens) (O94921 whole entry): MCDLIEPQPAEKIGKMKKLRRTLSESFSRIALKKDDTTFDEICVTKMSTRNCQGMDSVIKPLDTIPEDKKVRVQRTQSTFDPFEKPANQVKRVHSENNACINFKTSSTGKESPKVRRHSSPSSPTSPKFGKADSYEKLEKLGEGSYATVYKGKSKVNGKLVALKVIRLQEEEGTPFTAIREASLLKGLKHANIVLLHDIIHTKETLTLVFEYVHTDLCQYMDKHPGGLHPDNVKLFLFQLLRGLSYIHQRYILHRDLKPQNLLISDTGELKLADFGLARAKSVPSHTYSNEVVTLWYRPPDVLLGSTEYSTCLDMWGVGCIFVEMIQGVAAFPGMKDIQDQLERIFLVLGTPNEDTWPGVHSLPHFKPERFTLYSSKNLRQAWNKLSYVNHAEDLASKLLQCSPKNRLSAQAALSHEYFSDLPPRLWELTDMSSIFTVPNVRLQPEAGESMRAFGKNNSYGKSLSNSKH
Sequence of G protein-coupled receptor kinase 4 (Homo sapiens) (P32298 whole entry, looked up): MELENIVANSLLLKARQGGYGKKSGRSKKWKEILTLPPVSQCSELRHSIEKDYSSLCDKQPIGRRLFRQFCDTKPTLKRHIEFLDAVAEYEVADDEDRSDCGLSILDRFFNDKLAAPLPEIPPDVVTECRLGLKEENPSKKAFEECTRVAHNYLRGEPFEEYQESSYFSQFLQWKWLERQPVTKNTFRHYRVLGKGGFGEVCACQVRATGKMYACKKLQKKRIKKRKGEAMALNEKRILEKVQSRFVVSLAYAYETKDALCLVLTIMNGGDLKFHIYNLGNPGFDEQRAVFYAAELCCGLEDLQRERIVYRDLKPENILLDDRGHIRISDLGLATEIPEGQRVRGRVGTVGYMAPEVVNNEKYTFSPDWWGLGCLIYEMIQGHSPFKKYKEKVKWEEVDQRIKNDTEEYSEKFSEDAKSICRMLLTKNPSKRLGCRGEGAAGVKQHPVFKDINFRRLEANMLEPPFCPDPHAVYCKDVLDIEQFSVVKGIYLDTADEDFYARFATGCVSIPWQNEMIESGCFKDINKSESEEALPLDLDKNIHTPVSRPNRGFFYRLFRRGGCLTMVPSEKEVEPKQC

## CC1=C(C#N)C(c2ccc3[nH]nc(C)c3c2)C(C#N)=C(C)N1 [BAY-474]
[1]
  inhibition: -1%
[2]
  inhibition: -2%
[3]
  inhibition: 4%
[4]
  inhibition: 10%
[5]
  inhibition: 3%
[6]
  inhibition: 2%
[7]
  inhibition: 4%
[8]
  IC50: 900 nM
[8]; Compound concentration 1.0 uM
  inhibition: 46%
[9]
  inhibition: 16%
[10]
  inhibition: 8%
[11]
  inhibition: 12%
[12]
  inhibition: 2%
[13]
  inhibition: 11%
Mus musculus
  inhibition: 4%
[14]
  inhibition at 60 min, 10 µM: -1% (not active)
[15]
  inhibition: -2%
[16]
  inhibition: 19%
[17]
  inhibition: 13%

## CC1=C(C#N)[C@@H](c2ccc3[nH]nc(C)c3c2)C(C#N)=C(c2ccc(Cl)cc2)N1 [BAY-827]
[18]
  residual activity: 100%
[19]
  residual activity: 89.5%
[20]
  residual activity: 100%
[21]
  residual activity: 100%
[22]
  residual activity: 66.8%
[23]
  residual activity: 100%
[24]
  residual activity: 100%
[25]
  residual activity: 84.3%
[26]
  residual activity: 35.8%
[27]
  residual activity: 100%
[28]
  residual activity: 100%
[29]
  residual activity: 100%
[30]
  residual activity: 64.7%
[31]
  residual activity: 100%
[32]
  residual activity: 100%
[33]
  residual activity: 100%
[34]
  residual activity: 94.4%
[35]
  residual activity: 100%
[36]
  residual activity: 81.4%
[37]
  residual activity: 86.6%
[38]
  residual activity: 100%
[39]
  residual activity: 86.6%
[40]
  residual activity: 68.5%
[41]
  residual activity: 100%
[42]
  residual activity: 84.5%
